Source: patent US20220288048A1, “PIMAVANSERIN FOR TREATING SCHIZOPHRENIA OR FOR TREATING PSYCHOSIS SECONDARY TO NEURODEGENERATIVE DISORDERS OR DEPRESSIVE DISORDER” (ACADIA Pharmaceuticals Inc., priority 2019, published 2022)

What was measured:
[1] = Plasma levels of risperidone in scPCP and ARS-treated mice (mass spectrometer); assay type: in vivo; conditions: 3 mg/kg pimavanserin with 0.2 mg/kg risperidone
Experimental: The behavioral assay, ARS protocol, and scPCP-treatment as described in Example 2 were used. To test the effect of atypical APD and pimavanserin, alone or as con-administration, in scPCP-treated mice (N=10 pairs of mice per group) given 2 h ARS, risperidone (“Risp”) was administered as 0.2 mg/kg or 0.4 mg/kg ip; olanzapine (“Olan”) as 1.0 mg/kg ip; aripiprazole (“Aripi”) as 1.0 mg/kg ip; and pimavanserin (“Pim”) as 3 mg/kg ip to scPCP+ARS(2h) treated male C57BL/6J mice 45 minutes prior to the commencement of the social interaction task in the 10 min social interaction test. Plasma levels of risperidone were measured using a Triple Quad 6500+ mass spectrometer.

[2] = test system: scPCP-treated C57BL/6J mice; test: 10-min social interaction test in scPCP-treated mice; assay type: in vivo; conditions: pimavanserin 3 and 6 mg/kg ip, alone
Experimental: Negative symptoms model: The behavioral assay utilized to assess negative symptoms was social interaction (SI) task.
Briefly, mice were habituated to the test arena (i.e., the NOR box) for 30 minutes prior to the test day. Pairs of mice, unfamiliar to each other, received either the same treatment (e.g., vehicle and vehicle; N=10 pairs) or different treatments (e.g., vehicle; N=10 and phencyclidine (PCP) 10 mg/kg; N=10). After washout, they were placed in the test arena together for 10 minutes. A heavy object made of Plexiglas or metal was placed in the center of the test arena to quantify the time and nature of interaction of the test animals with an unfamiliar object or an unfamiliar animal. After the 10 min test phase, the object and the arena were cleaned with 70% ethanol to remove any olfactory trails. Behavior was recorded on video for subsequent blind scoring.
The following four behaviors were scored for each animal: • a) Sniffing: A normal mouse engages in sniffing the con-specific mouse's body, including the anogenital area • b) Following: A normal mouse pursues a con-specific mouse around the arena • c) Avoiding: A normal mouse avoids the con-specific mouse and move away from a pursuing mouse if approached • d) Object Exploration: A normal mouse explores the object that is placed in the center of the test arena.
scPCP treatment involved intraperitoneal injection (ip) of 10 mg/kg PCP to male C57BL/6J mice, twice daily (bid) for 7 days, followed by 7 days washout. To test the effect of atypical APD or pimavanserin in scPCP-treated mice (N=10 pairs of mice per group), risperidone was administered as 0.05 mg/kg ip or 0.2 mg/kg ip; and pimavanserin was administered as 3 mg/kg ip or 6 mg/kg ip to scPCP-treated mice 45 minutes prior to the commencement of the social interaction task in the 10 min social interaction test.

[3] = test system: subjects with schizophrenia who have predominant negative symptoms; test: Phase 2, 26-week placebo-controlled study of adjunctive pimavanserin for negative symptoms of schizophrenia: efficacy; assay type: in vivo, human; conditions: for NSA-16 total score vs placebo, effect size: Week 26; for NSA-16 total score, change from Baseline to Week 26: placebo −8.5
Experimental: This study is conducted as a Phase 2, 26-week, randomized, double-blind, placebo-controlled, multicenter, multinational outpatient study in subjects with schizophrenia who have predominant negative symptoms while on adequate treatment with an antipsychotic. Schizophrenia is defined by the Diagnostic and Statistical Manual of Mental Disorders, Fifth Edition (DSM-5), confirmed by a customized module of the Structured Clinical Interview for DSM-5, Clinical Trials Version (SCID-5-CT). This study enrolls approximately 403 subjects with predominant negative symptoms of schizophrenia. In the study, patients were randomized to receive either pimavanserin or placebo added to their current background antipsychotic treatment for 26 weeks in duration. At baseline all patients were started on a daily dose of 20 mg of pimavanserin or placebo with dose adjustments allowed up to 34 mg or down to 10 mg during the first eight weeks of treatment. Following week eight no further dose modifications were allowed for the remaining 18 weeks in the study.
The daily dose of the main antipsychotic must remain stable and may not be changed from Screening through the duration of the study. […] At the Weeks 2, 4, and 8 visits, the daily dose of pimavanserin may remain at 20 mg or it may be either increased to 34 mg (for symptom improvement) or decreased to 10 mg daily (if the 20 mg dose is not well tolerated). After the Week 8 visit, no study drug dose changes may be made. Clinic visits occurring after Baseline will be conducted at Weeks 2, 4, 8, 14, 20, and 26 (End-of-Study [EOS]/Early Termination [ET] visit).
The test products are pimavanserin 10 mg and 17 mg tablets or matching placebo. Daily doses of pimavanserin to be studied are 10 mg (provided as 1×10 mg pimavanserin tablet and 1× matching placebo); 20 mg (2×10 mg pimavanserin tablets); or 34 mg (2×17 mg pimavanserin tablets); or matching placebo (2× placebo tablets); delivered by mouth. Seventeen (17) mg of the active moiety is dosed as 20 mg of the salt pimavanserin tartrate; 10 mg of the active moiety is dosed as 11.8 mg of the salt pimavanserin tartrate. The duration of participation for individual subjects will be up to approximately 34 weeks.
Primary Efficacy Endpoint is the change from Baseline to Week 26 in the Negative Symptom Assessment-16 (NSA-16) total score.
Secondary Endpoints Key Secondary Endpoint is the change from Baseline to Week 26 in the Personal and Social Performance Scale (PSP) score.

For CC(C)COc1ccc(CNC(=O)N(Cc2ccc(F)cc2)C2CCN(C)CC2)cc1 [Pimavanserin, N-(4-Fluorophenylmethyl)-N-(1-methylpiperidin-4-yl)-N′-(4-(2-methylpropyloxy)phenylmethyl)carbamide], the “Pharmacokinetic effect of pimavanserin on risperidone drug levels” value [1] was “not due to a pharmacokinetic effect”, the “Restoration of SI deficit in scPCP-treated mice” value [2] was “did not restore SI deficit” and the “NSA-16 total score vs placebo, effect size” value ([3]; 34 mg dose) was 0.34. The “NSA-16 total score, change from Baseline to Week 26” value ([3]; all pimavanserin doses (10-34 mg daily), added to background antipsychotic) was −10.4, the “NSA-16 total score vs placebo, effect size” value ([3]; all pimavanserin doses) was 0.21 and the “Personal and Social Performance Scale, change from Baseline to Week 26” value ([3]; key secondary endpoint, placebo 8.1) was 8.1. For the same compound, the “NSA-16 total score, change from Baseline to Week 26” value ([3]; patients who received the 34 mg fixed dose after week 8 (n=107)) was −11.6.
